Assay results published in patent US20050171037A1, “Therapeutic combinations” (Agouron Pharmaceuticals, Inc., priority 2004, published 2005).
Like-named read-outs stand apart in the source and are kept apart here.

Experiments:
[1] = Compound A pharmacokinetics after oral administration of a single dose with and without ritonavir, human subjects, fed; type: in vivo; details: for half-life / Cmax / AUC / Tmax: plasma, po; for half-life / Ae % (drug recovered unchanged in urine, percent of administered dose): arithmetic mean; for Cmax / AUC: geometric mean; for AUC: read-out: AUC (area under the concentration-time curve from time 0 to infinity); for Tmax: median
Method: Nos. 11/008325, filed Dec. 8, 2004, and 60/591,351, filed Jul. 26, 2004, all of which are hereby incorporated by reference for this purpose. A total of 30 human subjects were administered a single 100 mg, 300 mg, 800 mg, 1000 mg, 1500 mg, 2000 mg, or 3000 mg dose of a spray-dried composition comprising 90 wt % amorphous Compound A and 10 wt % hydroxypropyl methyl cellulose acetate succinate (HPMCAS), under fed conditions according to the schedule found in Table I. […] Each plasma sample was analyzed for the presence of Compound A and the following pharmacokinetic parameters for Compound A were determined for each subject: area under the concentration-time curve from time 0 extrapolated to infinity (AUC), maximum observed plasma concentration (Cmax), time to first occurrence of Cmax (Tmax), terminal phase plasma half-life (t1/2), and cumulative amount of drug recovered unchanged in the urine expressed as a percentage of administered dose (Ae %). The mean to t1/2 value for the 100 mg dose group was calculated from three subjects. The t1/2 values for three subjects at this dose level were deemed unreliable owing to poor estimates of the terminal phase rate constant from regressions (r^2 values less than 0.9) and, therefore, were not included in the summary statistics. Similarly, the th for one subject in the 800 mg dose group was deemed unreliable owing to poor estimate of the terminal phase rate constant from regression (r^2 values less than 0.9) and therefore was not included in the summary statistics.

[2] = as above; type: in vivo; details: for Ae % (drug recovered unchanged in urine, percent of administered dose): arithmetic mean
[3] = 100 mg, single oral dose 100 mg, without ritonavir
[4] = 300 mg, single oral dose 300 mg, without ritonavir
[5] = 800 mg, single oral dose 800 mg, without ritonavir
[6] = 1000 mg, single oral dose 1000 mg, without ritonavir
[7] = 1500 mg, single oral dose 1500 mg, without ritonavir
[8] = 2000 mg, single oral dose 2000 mg, without ritonavir
[9] = 3000 mg, single oral dose 3000 mg, without ritonavir
[10] = single oral dose 400 mg + ritonavir (100 mg every 12 hours for 3 doses)
[11] = single oral dose 800 mg + ritonavir (100 mg every 12 hours for 3 doses)

C=CCNC(=O)[C@H]1N(C(=O)[C@@H](O)[C@H](Cc2ccccc2)NC(=O)c2cccc(O)c2C)CSC1(C)C [Compound A, (4R)-N-allyl-3-{(2S,3S)-2-hydroxy-3-[(3-hydroxy-2-methylbenzoyl)amino]-4-phenylbutanoyl}-5,5-dimethyl-1,3-thiazolidine-4-carboxamide]
half-life ([1]; 100 mg, single oral dose 100 mg, without ritonavir, N = 3, read-out: t½ (terminal phase plasma half-life) (converted)): 8.63 h | Cmax [1, 3]: 160 ng/mL | AUC [1, 3]: 740 ng·h/mL | Tmax [1, 3]: 3 h | half-life ([1]; 300 mg, single oral dose 300 mg, without ritonavir, read-out: t½ (terminal phase plasma half-life) (converted)): 8.17 h | Cmax [1, 4]: 720 ng/mL | AUC [1, 4]: 3560 ng·h/mL | Tmax [1, 4]: 2.5 h | half-life ([1]; 800 mg, single oral dose 800 mg, without ritonavir, N = 5, read-out: t½ (terminal phase plasma half-life) (converted)): 11.7 h | Cmax [1, 5]: 3120 ng/mL | AUC [1, 5]: 15800 ng·h/mL | Tmax [1, 5]: 3 h | half-life ([1]; 1000 mg, single oral dose 1000 mg, without ritonavir, read-out: t½ (terminal phase plasma half-life) (converted)): 7.28 h | Cmax [1, 6]: 3350 ng/mL | AUC [1, 6]: 16900 ng·h/mL | Tmax [1, 6]: 3 h | half-life ([1]; 1500 mg, single oral dose 1500 mg, without ritonavir, read-out: t½ (terminal phase plasma half-life) (converted)): 9.17 h | Cmax [1, 7]: 7040 ng/mL | AUC [1, 7]: 41900 ng·h/mL | Tmax [1, 7]: 4 h | half-life ([1]; 2000 mg, single oral dose 2000 mg, without ritonavir, read-out: t½ (terminal phase plasma half-life) (converted)): 10.4 h | Cmax [1, 8]: 7490 ng/mL | AUC [1, 8]: 44200 ng·h/mL | Tmax [1, 8]: 2 h | half-life ([1]; 3000 mg, single oral dose 3000 mg, without ritonavir, read-out: t½ (terminal phase plasma half-life) (converted)): 7.6 h | Cmax [1, 9]: 11200 ng/mL | AUC [1, 9]: 86400 ng·h/mL | Tmax [1, 9]: 4 h | half-life ([1]; single oral dose 400 mg + ritonavir (100 mg every 12 hours for 3 doses), read-out: t½ (terminal phase plasma half-life) (converted)): 8.56 h | Cmax [1, 10]: 5210 ng/mL | Tmax [1, 10]: 3.51 h | half-life ([1]; single oral dose 800 mg + ritonavir (100 mg every 12 hours for 3 doses), read-out: t½ (terminal phase plasma half-life) (converted)): 8.39 h | Cmax [1, 11]: 7350 ng/mL | Tmax [1, 11]: 4 h | Ae % (drug recovered unchanged in urine, percent of administered dose) ([1]; single oral dose 100 mg, without ritonavir): 1.34% | Ae % (drug recovered unchanged in urine, percent of administered dose) ([1]; single oral dose 300 mg, without ritonavir): 2.04% | Ae % (drug recovered unchanged in urine, percent of administered dose) ([1]; single oral dose 800 mg, without ritonavir): 4.00% | Ae % (drug recovered unchanged in urine, percent of administered dose) ([1]; single oral dose 1000 mg, without ritonavir): 4.21% | Ae % (drug recovered unchanged in urine, percent of administered dose) ([1]; single oral dose 2000 mg, without ritonavir): 7.92% | Ae % (drug recovered unchanged in urine, percent of administered dose) ([1]; single oral dose 3000 mg, without ritonavir): 9.05% | AUC ([2]; plasma, single oral dose 400 mg + ritonavir (100 mg every 12 hours for 3 doses), geometric mean, read-out: AUC (area under the concentration-time curve from time 0 to infinity)): 42500 ng·h/mL | Ae % (drug recovered unchanged in urine, percent of administered dose) [2, 10]: 20.4% | Ae % (drug recovered unchanged in urine, percent of administered dose) [2, 11]: 19.4% | AUC (area under the concentration-time curve from time 0 to infinity) ([2]; single oral dose 800 mg + ritonavir (100 mg every 12 hours for 3 doses), geometric mean): 71400 ng·h/mL
